# Source: patent US10793543B2, “Selective C-KIT kinase inhibitor” (PRECEDO PHARMACEUTICALS CO., LTD, priority 2016, dated 2020)
# Tests used:
# [1] = system: phosphorylation of Bcr-Abl kinase and pathway proteins in K562 cells; assay: Effects on cell signaling pathways (phosphorylation), K562; assay type: cell-based, human; settings: K562, concentration up to 3 μM, 2 hours
# BaF3 cells = assay: Cell proliferation, CCK-8, parental BaF3; assay type: cell-based; settings: Mus musculus, 72 hours
# Text: (§1) In the present example, the following cells were used: chronic myelogenous leukemia cells K562 (expressing P210 Bcr-Abl mutant gene), human megakaryocytic leukemia cells MEG-01 (expressing P210 Bcr-Abl mutant gene), human peripheral blood basophilic leukemia cells Ku812 (expressing Bcr-Abl mutant gene) (all above cells purchased from ATCC, USA), human gastrointestinal stromal tumor cell lines GIST-T1 cells (expressing wild-type C-KIT gene) (purchased from Cosmo Bio Co., Ltd., Japan), human gastrointestinal stromal tumor cell lines GIST-882 cells (expressing wild-type C-KIT gene) (presented by the Professor Gray Lab, Dana-Farber Cancer Institute, Harvard University, USA), mouse pro-B cells BaF3 (purchased from ATCC, USA).
# (§2) The cells were incubated for 72 hours, and then the number of viable cells was quantified with a microplate reader by using CCK-8 Cell Viability Assay Kit (purchased from Bestbio Company, Shanghai, China) (CCK-8 can be reduced by dehydrogenase in living cells to a highly water-soluble yellow formazan product, and the amount of formazan produced is proportional to the number of living cells).
# [2] = system: cells expressing wild-type ABL and mutant Bcr-Abl kinase; assay: Cell proliferation, text summary for ABL/Bcr-Abl cells; assay type: cell-based; settings: summary of Table 2
# Text: as §1, with “USA). […]” for “USA).”
# as §2
# [3] = system: Tel-RET-BaF3 cells (RET WT); assay: Cell proliferation, CCK-8, Tel-RET-BaF3; assay type: cell-based; settings: Mus musculus, 72 hours
# Text: (§3) In addition, in the present example, further uses: mouse P210/BaF3 (stably expressing P210 Bcr-Abl mutant gene), mouse Tel-ABL-BaF3 (stably expressing wild-type ABL kinase), mouse Tel-cKit-BaF3 (stably expressing C-KITwild-type kinase), mouse Tel-cKit/V559D-BaF3 (stably expressing C-KIT V559D mutant kinase), mouse Tel-cKit/V559D/V654A-BaF3 (stably expressing C-KIT V559D/V654A mutant kinase), mouse Tel-cKit/N822K-BaF3 (stably expressing C-KIT N822K mutant kinase), mouse Tel-cKit/V654A-BaF3 (stably expressing C-KIT V654A mutant kinase), mouse Tel-cKit/L567P-BaF3 (stably expressing C-KIT L567P mutant kinase), mouse Tel-cKit/T670I-BaF3 (stably expressing C-KIT T670I mutant kinase), mouse Tel-PDGFRα-BaF3 (stably expressing PDGFRα kinase), mouse Tel-PDGFRβ-BaF3 (stably expressing PDGFRβ kinase), mouse Tel-VEGFR2-BaF3 (stably expressing VEGFR2 kinase), mouse Tel-RET-BaF3 (stably expressing RET kinase). The above cell lines were all constructed by our laboratory according to the following method: the kinase region sequences of human P210 Bcr-Abl, ABL, C-KIT, C-KIT V559D, C-KIT V559D/V654A, C-KIT N822K, C-KIT V654A, C-KIT L567P, C-KIT T670I, PDGFRα, PDGFRβ, VEGFR2, RET were amplified respectively by PCR, inserted respectively into MSCV-Puro vectors harboring N-terminal TEL fragment and/or NPM fragment and/or TPR fragment (Clontech), then the vectors were stably transfected into mouse BaF3 cells by retrovirus methods and growth factor IL-3 was removed, eventually obtaining cell lines that are transferred protein (P210 Bcr-Abl, ABL, C-KIT, C-KIT V559D, C-KIT V559D/V654A, C-KIT N822K, C-KIT V654A, C-KIT L567P, C-KIT T670I, PDGFRα, PDGFRβ, VEGFR2, RET)-dependent.
# as §2
# [4] = system: Tel-cKit/N822K-BaF3 cells (KIT N822K); assay: Cell proliferation, CCK-8, Tel-cKit/N822K-BaF3; assay type: cell-based; settings: Mus musculus, 72 hours
# Text: as §3, §2
# GIST-882 cells [5] = assay: Cell cycle distribution by flow cytometry, GIST-882; assay type: cell-based, human; settings: GIST-882, treated 48 hours
# [6] = Acute toxicity assay in mice, single oral gavage; assay type: in vivo; settings: for Number of death (number of death/number of animals in each group): female mice, 7 days observation
# Experimental: 1. 4-6 week-old Bal b/c female mice were purchased from Shanghai SLAC Experimental Animal Co., Ltd., and were raised in a SPF-level laboratory. Drinking water and padding were both subjected to aseptic processing via high-pressure disinfection, and all operations of the mice were conducted under aseptic conditions; 10 healthy mice were selected, and were balanced and randomly divided into 5 groups according to their weights.
# 2. Specific Information for Administration
# Route of administration: oral gavage
# Observation period: 7 days.
# 3. Observation Indicators
# Weighing frequency: upon grouping, the day of administration (D0) to the seventh day after administration (D7). Based on the mouse weight on D0 (starting value of 100%), the graph of the relative body weight over time was plotted.
# 3.2. Clinical Symptoms Observation
# Strict observation was carried out within 4 hours after administration, and then observation was carried out twice a day for a total of 7 days. Observation was carried out and abnormal symptoms or phenomena in each of animals were recorded.
# The number of animals died in each of dosage groups during the observation period.
# Comprehensive determination was performed based on animal mortality, clinical symptoms and body weights.
# [7] = system: Tel-PDGFRα-BaF3 cells (PDGFRα); assay: Cell proliferation, CCK-8, Tel-PDGFRα-BaF3; assay type: cell-based; settings: Mus musculus, 72 hours
# Text: as §3, §2
# [8] = system: phosphorylation of C-KIT and pathway proteins in GIST-882 cells; assay: Effects on cell signaling pathways (phosphorylation), GIST-882; assay type: cell-based, human; settings: GIST-882, 0.1 μM, 2 hours
# [9] = system: Tel-VEGFR2-BaF3 cells (VEGFR2); assay: Cell proliferation, CCK-8, Tel-VEGFR2-BaF3; assay type: cell-based; settings: Mus musculus, Tel-VEGFR2-BaF3, VEGFR2, 72 hours
# Text: as §3, §2
# GIST-882 cells [10] = assay: Apoptosis, PARP and Caspase 3 cleavage by Western Blot, GIST-882; assay type: cell-based, human; settings: GIST-882, 0.3 μM, 72 hours
# Text: The effects of different concentrations of drugs on protein cleavage of DNA repairase poly(ADP-ribose) polymerase (PARP) and Caspase (cysteinyl aspartate-specific proteinase) 3 at different periods of time were examined by Western Blot.
# [11] = system: Tel-cKit/T670I-BaF3 cells (KIT T670I); assay: Cell proliferation, CCK-8, Tel-cKit/T670I-BaF3; assay type: cell-based; settings: Mus musculus, 72 hours
# Text: as §3, §2
# [12] = system: Tel-PDGFRβ-BaF3 cells (PDGFRβ); assay: Cell proliferation, CCK-8, Tel-PDGFRβ-BaF3; assay type: cell-based; settings: Mus musculus, 72 hours
# Text: as §3, §2
smiles,measurement,setting,value
Cc1ccc(NC(=O)c2cccc(C(F)(F)F)c2)cc1OC1CCN(C(=O)c2ccncc2)CC1 [Compound 4],phosphorylation of Bcr-Abl kinase,[1],no effect
same,"phosphorylation of proteins such as AKT, ErK",[1],no effect
same,GI50,BaF3 cells,> 10000 nM
same,GI50,[2],> 5000 nM
same,GI50,[3],590 nM
same,GI50,[4],940 nM
same,effect on cell cycle,GIST-882 cells [5],significantly blocked in the GO-G1 phase
same,Number of death (number of death/number of animals in each group),[6]; 250 mg/kg single oral gavage,♀: 0/2:
same,Number of death (number of death/number of animals in each group),[6]; 500 mg/kg single oral gavage,♀: 0/2:
same,effect on mouse weight,[6]; 1000 mg/kg single oral gavage,no significant effect on mouse weight
same,Number of death (number of death/number of animals in each group),[6]; 1000 mg/kg single oral gavage,♀: 0/2:
same,effect on mouse weight,[6]; 2000 mg/kg single oral gavage,decreased slightly
same,Number of death (number of death/number of animals in each group),[6]; 2000 mg/kg single oral gavage,♀: 0/2:
same,mouse organs on dissection,"[6]; dissected after 7 days, single oral gavage",no obvious abnormalities
same,mice died,"[6]; mouse, in vivo",no mouse died
same,maximum tolerated dosage,"[6]; mouse, single oral gavage",2000 mg/kg
same,GI50,[7],38 nM
same,phosphorylation of C-KIT oncogenic protein,[8],significantly inhibiting
same,"phosphorylation of proteins such as Stat5, AKT, ErK, S6K, S6, PDGFRα",[8],significant inhibitory effects
same,GI50,[9],347 nM
same,cleavage of PARP and Caspase 3,GIST-882 cells [10],significant cleavage
same,GI50,[11],5310 nM
same,GI50,[12],27 nM
